“And” between values parts separate entries of the source, which are not always exact repeats. Identical values can stand only once. After the bases stand the sugars from the 5' end (letter, count) and the backbone: PS all phosphorothioate, else s phosphorothioate and o phosphodiester by linkage. Methylation of C is not given here. k = constrained ethyl (cEt); d = 2'-deoxy (DNA)
Molecular target: MALAT1
Details: ASO, A431, 0.005 µM

CTTTTAATCATACTCC (sugars k3 d10 k3, PS) showed a target mRNA inhibition of 16%.

GAAAGCGAGTTCAAGT (sugars k3 d10 k3, PS) showed a target mRNA inhibition of -1%.

Work on GAAATCCCCTAGGGAA (sugars k3 d10 k3, PS) yielded a target mRNA inhibition of 6%.

For GAACAGTACTGCATTT (sugars k3 d10 k3, PS), the target mRNA inhibition was 28%.

With GAACTAGTGGTTCCCA (sugars k3 d10 k3, PS) the target mRNA inhibition was 46%.

Sequence GAAGAAGCTTCATCTC (sugars k3 d10 k3, PS) has a target mRNA inhibition of 15%.

GAAGAGCATTGGAGAT (sugars k3 d10 k3, PS) gave a target mRNA inhibition of 49%.

GAAGCATACCTTAACA (sugars k3 d10 k3, PS) gave a target mRNA inhibition of 5%.

For GAAGCCCCTGCGCTGG (sugars k3 d10 k3, PS), the target mRNA inhibition was 23%.

GAAGGATGAAATGCCT (sugars k3 d10 k3, PS) was tested, and the target mRNA inhibition was 7%.

For GAAGTGTTTACACTGC (sugars k3 d10 k3, PS), the target mRNA inhibition was 11%.

GAATCTCAGGGTTATG (sugars k3 d10 k3, PS) was tested, and the target mRNA inhibition was 57% and 76%.

GAATTCGATCACCTTC (sugars k3 d10 k3, PS) was tested, and the target mRNA inhibition was -1%.

Work on GACAAGGCAGTTATAT (sugars k3 d10 k3, PS) yielded a target mRNA inhibition of 1%.

In the case of GACACTTTCCTTGCCC (sugars k3 d10 k3, PS), the target mRNA inhibition is reported as 48%.

With GACAGACCTAAGGGAA (sugars k3 d10 k3, PS) the target mRNA inhibition was 34%.

For GACAGCTAAGATAGCA (sugars k3 d10 k3, PS), the target mRNA inhibition was 12%.

GACCTGCCTTCAGGCG (sugars k3 d10 k3, PS) was tested, and the target mRNA inhibition was 13%.

With GACTGCTTAAAACTGC (sugars k3 d10 k3, PS) the target mRNA inhibition was 36%.

Sequence GACTTGCTCCCAAGAC (sugars k3 d10 k3, PS) has a target mRNA inhibition of 7%.

GAGGCAAGTCCTCATT (sugars k3 d10 k3, PS) was tested, and the target mRNA inhibition was 11%.

With GAGGTATGACATATAA (sugars k3 d10 k3, PS) the target mRNA inhibition was 54% and 49% and 50%.

In the case of GAGTCATTTGCCTTTA (sugars k3 d10 k3, PS), the target mRNA inhibition is reported as 73% and 48%.

GAGTGGTTTTATCTAA (sugars k3 d10 k3, PS) gave a target mRNA inhibition of 31%.

GAGTTGAGGCAAGTCC (sugars k3 d10 k3, PS) gave a target mRNA inhibition of 52%.

GATACCTGTCTGAGGC (sugars k3 d10 k3, PS) gave a target mRNA inhibition of 33%.

Work on GATAGTTCAGGGCTTT (sugars k3 d10 k3, PS) yielded a target mRNA inhibition of 10%.

Work on GATATTTAAGAACTCC (sugars k3 d10 k3, PS) yielded a target mRNA inhibition of 38%.

Work on GATCATTAAGCCACTT (sugars k3 d10 k3, PS) yielded a target mRNA inhibition of 10%.

GATCCAAGCTACTGGC (sugars k3 d10 k3, PS) gave a target mRNA inhibition of 18%.

With GATTAAAGTGTGATAG (sugars k3 d10 k3, PS) the target mRNA inhibition was 16%.

For GATTAGAGAAGAATCC (sugars k3 d10 k3, PS), the target mRNA inhibition was 14%.

For GATTATGGATCATGCC (sugars k3 d10 k3, PS), the target mRNA inhibition was 47% and 61%.

Work on GATTTGAGCTGCAAAC (sugars k3 d10 k3, PS) yielded a target mRNA inhibition of 0%.

With GATTTTAAGGTTGCAT (sugars k3 d10 k3, PS) the target mRNA inhibition was 55% and 38%.

GATTTTTACCAACCAC (sugars k3 d10 k3, PS) showed a target mRNA inhibition of 42%.

With GCAAGTCCTCATTACT (sugars k3 d10 k3, PS) the target mRNA inhibition was 50% and 30%.

GCAATACTGCAGATGC (sugars k3 d10 k3, PS) showed a target mRNA inhibition of -19%.

Work on GCAATATCTTAGTAAC (sugars k3 d10 k3, PS) yielded a target mRNA inhibition of 23%.

GCACAGCTCGGGCGAG (sugars k3 d10 k3, PS) showed a target mRNA inhibition of -20%.

GCACTGGTACACCCAG (sugars k3 d10 k3, PS) was tested, and the target mRNA inhibition was -9%.

With GCACTTATCCCTAACA (sugars k3 d10 k3, PS) the target mRNA inhibition was 58% and 40%.

Work on GCAGATTCTGTGTTAT (sugars k3 d10 k3, PS) yielded a target mRNA inhibition of -2%.

With GCAGTTATATTAGGTT (sugars k3 d10 k3, PS) the target mRNA inhibition was 15%.

GCATATGCAGATAATG (sugars k3 d10 k3, PS) gave a target mRNA inhibition of 36%.

Work on GCATCAAGGCACTGAT (sugars k3 d10 k3, PS) yielded a target mRNA inhibition of 35%.

Work on GCATGTAAGAATTAAG (sugars k3 d10 k3, PS) yielded a target mRNA inhibition of 28%.

GCATTCTAATAGCAGC (sugars k3 d10 k3, PS) was tested, and the target mRNA inhibition was 10% and 21%.

GCATTGGAGATCAGCT (sugars k3 d10 k3, PS) gave a target mRNA inhibition of 11%.

For GCATTTACTTGCCAAC (sugars k3 d10 k3, PS), the target mRNA inhibition was 11%.

GCCAACTAATTGCCAA (sugars k3 d10 k3, PS) gave a target mRNA inhibition of 33%.

Work on GCCCACAAGGATCCAA (sugars k3 d10 k3, PS) yielded a target mRNA inhibition of 15%.

In the case of GCCCACCCTCTAAGAG (sugars k3 d10 k3, PS), the target mRNA inhibition is reported as 18%.

GCCCACTCTGATCTGC (sugars k3 d10 k3, PS) showed a target mRNA inhibition of -4%.

GCCCAGTAGGCCAGAC (sugars k3 d10 k3, PS) showed a target mRNA inhibition of 25%.

With GCCCCAGTCCTTTACA (sugars k3 d10 k3, PS) the target mRNA inhibition was 3%.

GCCCGCACGGAAATTT (sugars k3 d10 k3, PS) was tested, and the target mRNA inhibition was 23%.

For GCCGCAGGGATTTGAA (sugars k3 d10 k3, PS), the target mRNA inhibition was 31%.

Work on GCCTCCTCCGTGTGGT (sugars k3 d10 k3, PS) yielded a target mRNA inhibition of -1%.

GCCTGGTTAGGTATGA (sugars k3 d10 k3, PS) was tested, and the target mRNA inhibition was 21%.

GCGCTTAAGAGGGCAG (sugars k3 d10 k3, PS) gave a target mRNA inhibition of 6%.

In the case of GCTAAGATGCTAGCTT (sugars k3 d10 k3, PS), the target mRNA inhibition is reported as 10%.

Work on GCTACAACAAGTAAGC (sugars k3 d10 k3, PS) yielded a target mRNA inhibition of 9%.

GCTAGTCCTCAGGATT (sugars k3 d10 k3, PS) showed a target mRNA inhibition of 47%.

GCTCACAAGGCAAATC (sugars k3 d10 k3, PS) was tested, and the target mRNA inhibition was -4%.

GCTCCTGACAAATTAT (sugars k3 d10 k3, PS) was tested, and the target mRNA inhibition was 17%.

GCTGAAATCTATTCAA (sugars k3 d10 k3, PS) showed a target mRNA inhibition of -159%.

GCTGAACTATCACAAT (sugars k3 d10 k3, PS) showed a target mRNA inhibition of 27%.

GCTGTCAATTAATGCT (sugars k3 d10 k3, PS) gave a target mRNA inhibition of 24%.

Sequence GCTGTCTTCCTAGATT (sugars k3 d10 k3, PS) has a target mRNA inhibition of 36%.

In the case of GCTTTGTTGTCTCTCC (sugars k3 d10 k3, PS), the target mRNA inhibition is reported as 93% and 97%.

Work on GGAAAGCGAGTTCAAG (sugars k3 d10 k3, PS) yielded a target mRNA inhibition of 24%.

GGAATGGCCAGCCTAT (sugars k3 d10 k3, PS) gave a target mRNA inhibition of 17%.

In the case of GGAATTCGATCACCTT (sugars k3 d10 k3, PS), the target mRNA inhibition is reported as 29%.

With GGAGAGGCCAGTTGCG (sugars k3 d10 k3, PS) the target mRNA inhibition was -10%.

GGATCATTAAGCCACT (sugars k3 d10 k3, PS) showed a target mRNA inhibition of 15%.

For GGATCCTCTACGCACA (sugars k3 d10 k3, PS), the target mRNA inhibition was 19%.

For GGCAAAATGGCGGACT (sugars k3 d10 k3, PS), the target mRNA inhibition was -14%.

Work on GGCAAACGAAACATTG (sugars k3 d10 k3, PS) yielded a target mRNA inhibition of 35%.

For GGCCAAGTCTGTTATG (sugars k3 d10 k3, PS), the target mRNA inhibition was -1%.

Sequence GGCCAGCCTATAAGGA (sugars k3 d10 k3, PS) has a target mRNA inhibition of 6%.

For GGCCTACTCAAGCTCT (sugars k3 d10 k3, PS), the target mRNA inhibition was 14%.

With GGCTCATATTTAACTT (sugars k3 d10 k3, PS) the target mRNA inhibition was 20%.

In the case of GGGTACTTCAAGCATT (sugars k3 d10 k3, PS), the target mRNA inhibition is reported as 43%.

GGTTTTAGTCACTGGA (sugars k3 d10 k3, PS) was tested, and the target mRNA inhibition was 85% and 95%.

For GGTTTTATCTAAATAC (sugars k3 d10 k3, PS), the target mRNA inhibition was 25%.

Work on GTAACAGGCCACTGCC (sugars k3 d10 k3, PS) yielded a target mRNA inhibition of 14%.

Work on GTAATTACTCTTGATC (sugars k3 d10 k3, PS) yielded a target mRNA inhibition of 47%.

GTACACCCAGTGGCTC (sugars k3 d10 k3, PS) gave a target mRNA inhibition of 6%.

Work on GTACTATAGCATCTGT (sugars k3 d10 k3, PS) yielded a target mRNA inhibition of 45%.

For GTACTATCCCATCACT (sugars k3 d10 k3, PS), the target mRNA inhibition was 33%.

GTAGACCAACTAAGCG (sugars k3 d10 k3, PS) showed a target mRNA inhibition of 26%.

GTAGTAAGAATCTCAG (sugars k3 d10 k3, PS) was tested, and the target mRNA inhibition was 80% and 71%.

For GTAGTTGTATTAATCT (sugars k3 d10 k3, PS), the target mRNA inhibition was 68% and 65%.

In the case of GTATGACATATAATCT (sugars k3 d10 k3, PS), the target mRNA inhibition is reported as 55% and 77%.

With GTCAATAGTACTATAG (sugars k3 d10 k3, PS) the target mRNA inhibition was 58% and 42%.

With GTCAATTAATGCTAGT (sugars k3 d10 k3, PS) the target mRNA inhibition was 41%.

With GTCAGGGACACACCCA (sugars k3 d10 k3, PS) the target mRNA inhibition was -11%.

For GTCTCCGAAGACACAG (sugars k3 d10 k3, PS), the target mRNA inhibition was -5%.

In the case of GTCTGAAGAATACCAT (sugars k3 d10 k3, PS), the target mRNA inhibition is reported as 47%.

In the case of GTGGAAAGATTTGAGC (sugars k3 d10 k3, PS), the target mRNA inhibition is reported as 17%.

GTGGTTATAGCTTGAC (sugars k3 d10 k3, PS) was tested, and the target mRNA inhibition was 79% and 93%.

For GTGTTCGCAGACAAAG (sugars k3 d10 k3, PS), the target mRNA inhibition was 10%.

Sequence GTGTTTACACTGCTCT (sugars k3 d10 k3, PS) has a target mRNA inhibition of 6%.

Sequence GTTAACTAGGCTTTAA (sugars k3 d10 k3, PS) has a target mRNA inhibition of 23%.

With GTTACCAATAATTTCC (sugars k3 d10 k3, PS) the target mRNA inhibition was 71% and 50%.

In the case of GTTACTTGCCAACTTG (sugars k3 d10 k3, PS), the target mRNA inhibition is reported as 63% and 81%.

Work on GTTAGGTATGAGCTTC (sugars k3 d10 k3, PS) yielded a target mRNA inhibition of 15%.

Work on GTTCAACCCACCAAAG (sugars k3 d10 k3, PS) yielded a target mRNA inhibition of 36%.

In the case of GTTCAAGTGGCCTTTT (sugars k3 d10 k3, PS), the target mRNA inhibition is reported as 22%.

With GTTCGAGAAATCGGAG (sugars k3 d10 k3, PS) the target mRNA inhibition was 15%.

GTTGAGAAGTGGCAAA (sugars k3 d10 k3, PS) showed a target mRNA inhibition of 20%.

For GTTGATATTTAAGAAC (sugars k3 d10 k3, PS), the target mRNA inhibition was -15%.

Work on GTTTACCACCTTTTGA (sugars k3 d10 k3, PS) yielded a target mRNA inhibition of 3%.

Reference: the OligoGym collection
